The values below come from patent US10577349B2 (Sanford Burnham Prebys Medical Discovery Institute, priority 2015, dated 2020).

Structures are written as SMILES. ≈ marks a conversion by molar mass, not a printed value. Where two headings read alike, the source gives them in different places. Where only a bound is given, the exact number is not on record here.

What is called IC50 is the concentration that inhibits the measured activity by half. A lower IC50 goes with greater potency. In general, solubility refers to how much of the substance goes into solution per volume.

The subject of one data set is A375. Put plainly: 48 h Cytotoxicity A375. In kind it is cell-based. Conditions: Homo sapiens, A-375.
Data set [1] has as its target HCV cap-dependent translation. Put plainly: In vitro translation assay, FF-HCV-Ren construct, cap-dependent (FF luciferase). In kind it is biochemical, rabbit reticulocyte lysates. The method in brief: (§1)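 RRL + Translation Mix -Met/-Leu 1:1; cpd pre-inc 1 h RT; 0.1 μg RNA/well; 2 h 30° C; Dual-Glo reagent 1 → FF read, reagent 2 → Ren read, 10 min each. Counter-screen: cpd added post-translation.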

A short description of data set [2]: Hepatic Microsome Stability Mouse. In kind it is in vitro ADME.
In data set [3] the target is HCV cap-independent translation. Put plainly: In vitro translation assay, FF-HCV-Ren construct, cap-independent (Ren luciferase). The format is biochemical, rabbit reticulocyte lysates. The method in brief:
as §1

A short description of data set [4]: Aqueous Solubility in pION's buffer. In kind it is physicochemical.
Data set [5] addresses EmCV Cap-independent translation. Put plainly: In vitro translation assay, FF-EmCV-Ren construct, cap-independent (Ren luciferase). In kind it is biochemical, rabbit reticulocyte lysates. An outline of the steps: as §1
A further data set in a line: PAMPA Permeability. The format is in vitro ADME. (In general: The PAMPA barrier holds no transporters, so it reflects passive diffusion.)
For a further data set, the system named is A375 tumors. Put plainly: A375 xenograft in nude mice. In kind it is in vivo. The method, then:
All animal studies were conducted in the SBMRI Animal Facility in accordance with the Institutional Animal Care and Use Committee guidelines. Six-week-old female nu/nu mice were purchased Harlan Laboratories (Indianapolis, Ind.) and allowed to acclimatize for 1 week. A375 cells (1×10^6, suspended in 200 μL sterile PBS) were injected into subcutaneous flank tissue. When the xenograft size reached ˜250 mm^3, mice were sorted into different groups. For PLX4720 and Compound 38 combination experiments, mice were either fed PLX4720-containing chow alone (AIN76A Roden Diet with 417 mg PLX4720/kg from Open Source Diets) for the control group or PLX4 720-containing chow plus an IP injection of 1 mg/kg Compound 38 twice a week. For MEKi plus Compound 38 experiments, PD0325901 at 20 mg/kg (formulated in 0.5% hydroxypropyl methylcellulose plus 0.2% Tween-80) was administered by oral gavage twice a week (Monday and Thursday) for the control group, or PD035901 plus IP injection of 1 mg/kg Compound 38 was administered twice a week (Tuesday and Friday). Mice were maintained in a pathogen-free environment with free access to food. Body weight and tumor volume were measured twice a week. Tumor size was measured with linear calipers and calculated using the formula: ([length in millimeters×(width in millimeters)2]/2). Mice were sacrificed after 4 weeks and tumors were fixed in Z-Fix (Anatech, Battle Creek, Mich.) and embedded in paraffin for immunohistochemistry.
A375 human melanomacells were injected subcutaneously (1×10^6) into the flank of nude mice and allowed to form established tumors. Once tumors reached approximately 250 mm3, mice were randomly grouped and subjected to the indicated treatments [chow containing PLX4720 (417 mg/kg) and/or Compound 38 (1 mg/kg, 2 times per week intraperitoneally)]. Tumor size was measured at the indicated time points. The experiment was repeated twice. […] When tumors were allowed to reach 500 mm^3 before initiating treatment, 5 of 7 […] mice subjected to BRAFi treatment alone relapsed as drug-resistant tumors (4/5 within 4-6 weeks), whereas only 3 of 6 (50%) subjected to combination treatment developed resistance, albeit more slowly (2/3 after 8 weeks; FIG. 22). […] Proteins prepared at the indicated times from A375 tumors that were subjected in vivo to treatment with Compound 38 were incubated with m^7GTP-beads to capture the eIF4F complex. Shown is time-dependent inhibition of eIF4G1 binding to eIF4E in vivo, concomitant with increased binding of inhibitory 4E-BP1 to eIF4E.

The next data set concerns the target T1, eIF4F complex (Mus musculus, UniProt Q6NZJ6).
T1 construct: endogenous in cells; host or cells: WT and 4E-BP1/2 double-knock-out MEFs
Put plainly: m7GTP pull-down assay, WT or 4E-BP DKO MEFs. The format is cell-based. The conditions noted are these: 6 hours, Torin1 250 nmol/L. How it is done: As previously described (Dowling R J, et al. mTORC1-mediated cell proliferation, but not cell growth, controlled by the 4E-BPs. Science. 2010; 328:1172-6), cells growing in 100 mm plates were washed (cold PBS), collected, and lysed in 50 mM MOPS/KOH (7.4), 100 mM NaCl, 50 mM NaF, 2 mM EDTA, 2 mM EGTA, 1% NP40, 1% Na-DOC, 7 mM β-mercaptoethanol, protease inhibitors and phosphatase inhibitor cocktail (Roche). Lysates were incubated with m7-GDP-agarose beads (Jena Bioscience) for 20 minutes, washed 4 times with the washing buffer containing 50 mM MOPS/KOH (7.4), 100 mM NaCl, 50 mM NaF, 0.5 mM EDTA, 0.5 mM EGTA, 7 mM (3-mercaptoethanol, 0.5 mM PMSF, 1 mM Na3VO4 and 0.1 mM GTP, and bound proteins were eluted by boiling the beads in loading buffer. m7-GDP-agarose pulled down material was analyzed by Western blot analysis.
Indicated cultures (WT or DKO 4E-BP) were treated with Torin1 (250 nmol/L) or indicated Compound 38 concentrations for 6 hours. Western blots show respective protein levels in total cell lysates or following pull-down using m^7GTP agarose beads. […] P3-Actin served as a loading control and to exclude contamination in m^7GTP pull-down.

The target of data set [6] is EmCV Cap-dependent translation. Put plainly: In vitro translation assay, FF-EmCV-Ren construct, cap-dependent (FF luciferase). In kind it is biochemical, rabbit reticulocyte lysates. The method in brief: as §1

T1 sequence (Q6NZJ6 whole entry, one chain of several): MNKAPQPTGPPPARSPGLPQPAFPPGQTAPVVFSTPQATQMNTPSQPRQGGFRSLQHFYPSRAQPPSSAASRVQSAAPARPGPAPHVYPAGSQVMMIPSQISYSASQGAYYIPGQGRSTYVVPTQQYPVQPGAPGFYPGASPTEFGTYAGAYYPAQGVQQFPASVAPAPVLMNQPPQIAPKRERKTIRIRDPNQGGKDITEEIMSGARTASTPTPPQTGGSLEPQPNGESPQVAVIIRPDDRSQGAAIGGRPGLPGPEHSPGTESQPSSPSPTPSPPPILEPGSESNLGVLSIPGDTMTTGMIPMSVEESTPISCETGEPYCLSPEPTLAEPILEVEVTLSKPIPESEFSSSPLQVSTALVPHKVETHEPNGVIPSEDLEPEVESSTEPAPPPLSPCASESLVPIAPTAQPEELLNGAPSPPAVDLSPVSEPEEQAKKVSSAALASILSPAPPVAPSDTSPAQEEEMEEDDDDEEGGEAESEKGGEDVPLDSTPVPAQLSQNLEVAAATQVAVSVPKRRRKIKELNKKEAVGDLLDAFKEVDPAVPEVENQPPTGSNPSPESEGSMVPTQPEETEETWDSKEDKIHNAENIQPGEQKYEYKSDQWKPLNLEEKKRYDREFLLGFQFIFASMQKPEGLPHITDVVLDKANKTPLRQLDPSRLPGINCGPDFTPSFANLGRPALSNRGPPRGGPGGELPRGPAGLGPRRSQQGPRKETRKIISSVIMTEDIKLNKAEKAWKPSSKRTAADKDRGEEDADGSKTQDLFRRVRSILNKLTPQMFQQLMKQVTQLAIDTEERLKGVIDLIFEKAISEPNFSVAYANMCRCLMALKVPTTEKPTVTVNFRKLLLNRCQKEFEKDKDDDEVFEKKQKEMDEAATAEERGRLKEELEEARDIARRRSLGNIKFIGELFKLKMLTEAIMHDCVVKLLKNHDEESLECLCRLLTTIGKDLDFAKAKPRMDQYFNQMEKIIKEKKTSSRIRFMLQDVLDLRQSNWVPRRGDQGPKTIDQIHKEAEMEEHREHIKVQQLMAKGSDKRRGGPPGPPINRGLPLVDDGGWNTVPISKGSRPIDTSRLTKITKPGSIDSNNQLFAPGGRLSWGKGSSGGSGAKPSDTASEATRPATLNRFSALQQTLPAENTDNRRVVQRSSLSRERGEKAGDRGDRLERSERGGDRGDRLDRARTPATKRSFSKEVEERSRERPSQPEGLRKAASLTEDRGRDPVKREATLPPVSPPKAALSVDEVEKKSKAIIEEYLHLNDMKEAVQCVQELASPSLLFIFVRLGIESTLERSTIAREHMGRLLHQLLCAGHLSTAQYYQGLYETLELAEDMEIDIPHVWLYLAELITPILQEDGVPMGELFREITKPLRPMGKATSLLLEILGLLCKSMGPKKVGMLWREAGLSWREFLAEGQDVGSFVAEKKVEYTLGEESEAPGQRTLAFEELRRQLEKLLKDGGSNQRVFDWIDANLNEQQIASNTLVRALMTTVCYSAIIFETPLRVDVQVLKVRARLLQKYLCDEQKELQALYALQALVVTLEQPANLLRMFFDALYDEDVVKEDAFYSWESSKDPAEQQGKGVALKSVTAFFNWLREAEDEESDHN

As for `O=C(/C=C/c1cncc(F)c1)c1c(-c2ccccc2)c2cc(Cl)ccc2[nH]c1=O` [Compound 38, 6-Chloro-3-[3-(5-fluoro-pyridin-3-yl)-acryloyl]-4-phenyl-1H-quinolin-2-one], the IC50 in the data set on A375 is below 2 µM; in data set [1] it was 2 to 10 µM; in [3] it was 2 to 10 µM; in data set [5], 2 to 10 µM; in [6], 2 to 10 µM. In data set [2], the “Hepatic Microsome Stability (% remaining at 1 Hr) Mouse” value worked out at 38.69 % remaining. Besides, the “Hepatic Microsome Stability (% remaining at 1 Hr) Mouse (no NADPH)” value in [2] (no NADPH) was found to be 53.97 % remaining. The solubility in data set [4] (aqueous buffer, pH 5.0, read-out: Aqueous Solubility in pION's buffer pH 5.0) stood at 6.5 µg/mL (≈ 16.1 µM); in data set [4] (pH 6.2, aqueous buffer, read-out: Aqueous Solubility in pION's buffer pH 6.2) it was 6.6 µg/mL (≈ 16.3 µM); in [4] (pH 7.4, aqueous buffer, read-out: Aqueous Solubility in pION's buffer pH 7.4) it was 5.5 µg/mL (≈ 13.6 µM). Also, the Papp in “PAMPA Permeability” (Donor pH 5.0, Acceptor pH 7.4, read-out: PAMPA Permeability, Pe, Donor pH 5.0) was found to be 11100 nm/s; in the data set “PAMPA Permeability” (Donor pH 6.2, Acceptor pH 7.4, read-out: PAMPA Permeability, Pe, Donor pH 6.2) it was 11500 nm/s; in “PAMPA Permeability” (pH 7.4, Donor pH 7.4, Acceptor pH 7.4, read-out: PAMPA Permeability, Pe, Donor pH 7.4) it was 8200 nm/s. Also, in the data set with A375 tumors (A375 tumors, treatment with both BRAFi and Compound 38, up to 8 hours), the “effect on the eIF4F complex in vivo (m7GTP-beads)” value is “time-dependent disruption of the eIF4F complex”. For the same compound, the “Growth of established tumors (~250 mm^3), combination of BRAFi plus Compound 38” value in the data set with A375 tumors (PLX4720 chow plus Compound 38 1 mg/kg, 2 times per week intraperitoneally) was “largely inhibited”. The “Tumors seen in mice treated with the drug combination” value in the data set on A375 tumors (treatment started at ~250 mm^3, PLX4720 chow plus Compound 38 1 mg/kg IP) is 0/4. Also, the “eIF4G1:eIF4E association (m7GTP pull-down)” value at eIF4F complex is “reduced eIF4G1:eIF4E association in both WT and 4E-BP DKO MEFs”.
